In US20220380341A1, “INHIBITORS OF HIV-1 NEF FOR THE TREATMENT OF HIV DISEASE” (priority 2018, published 2022):
Where two headings read alike, the source gives them in different places.

Columns and labels:
TZM-bl cell line = type: cell-based
Outline: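 Luciferase read-out 48 h post-infection; compound at 1 μM during HIV-1NL4-3 infection of TZM-bl cells. Percent inhibition scaled to DMSO wild-type virus (0%) and DMSO Nef-defective virus (100% of Nef-dependent effect). Viability checked separately in uninfected cells by Cell Titer Blue.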

HIV-1NL4-3 = experiment: HIV-1 infectivity assay in TZM-bl reporter cell line (LTR-luciferase, 48 h); type: cell-based; conditions: for inhibition at 1 µM: Human immunodeficiency virus 1, TZM-bl
Outline: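 TZM-bl cells (HIV-1 LTR-luciferase) infected with HIV-1NL4-3 with compound at 1 μM; luciferase read 48 h later. Percent inhibition normalized to DMSO wild-type infection (0%) and Nef-defective HIV-1 infection (100% of Nef-dependent effect). Viability in uninfected TZM-bl cells by Cell Titer Blue.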

HIV-1 NefNL4-3 = HIV-1 NefNL4-3 (Human immunodeficiency virus type 1 group M subtype B, UniProt P03406, A33V/T15A/T51N/V11I); experiment: Surface plasmon resonance binding to recombinant full-length Nef (NL4-3); conditions: for RU30/RUNef (extent of binding): response units at 30 μM relative to Nef immobilized on the SPR chip
[1] = 48 h, Table 1, TZM-bl cells, 1 μM, 48 h, 100% = Nef-defective HIV-1, read-out: HIV-1 Infectivity % Inhibition Norm. to Δ-Nef @ 1 μM
[2] = Table 4, 1:1 Langmuir fit, T = 1/koff
[3] = 1.0 μM, TZM-bl reporter cell line, Table 4, read-out: % Infectivity Inhibition
[4] = KD, M, Table 4, SPR fit 1:1 Langmuir, KD = koff/kon
[5] = KD, M, Table 4, SPR fit 2-step induced fit, KD = koff/kon × koff2/(koff2 + kon2)
[6] = Nef NL4-3 Binding, SPR 2-state fitting KD, Table 1, 2-step induced-fit model
[7] = Table 4, 2-step induced fit, T = 1/koff2

| SMILES | Percent Viability @ 1 μM (TZM-bl cells) (TZM-bl cell line; human, 1 μM) [%] | inhibition at 1 µM (HIV-1NL4-3; [1]) [%] | Kd (HIV-1 NefNL4-3) [nM] | T, minutes (residence time) (HIV-1 NefNL4-3; [2]) | RU30/RUNef (extent of binding) (HIV-1 NefNL4-3) [E- 03] | % Cell Viability (TZM-bl cell line; human, 1 μM) [%] | inhibition at 1 µM (HIV-1NL4-3; [3]) [%] | Kd (HIV-1 NefNL4-3; [4]) [nM] | other results |
| --- | --- | --- | --- | --- | --- | --- | --- | --- | --- |
| O=C(c1cnccn1)N1CCC(Cc2nn(-c3nc4ccccc4[nH]3)c(O)c2CCc2ccc(F)cc2)CC1 [Compound I-767, 1-(1H-1,3-benzodiazol-2-yl)-4-[2-(4-fluorophenyl)ethyl]-3-{[1-(pyrazine-2-carbonyl)piperidin-4-yl]methyl}-1H-pyrazol-5-ol] | 97.6 | 18.9 | 425 |  |  |  |  |  |  |
| CN1CCN(CC(=O)N2CCC(Cc3nn(-c4nc5ccccc5[nH]4)c(O)c3CCc3ccc(F)cc3)CC2)CC1 [Compound I-768, 1-(4-{[1-(1H-1,3-benzodiazol-2-yl)-4-[2-(4-fluorophenyl)ethyl]-5-hydroxy-1H-pyrazol-3-yl]methyl}piperidin-1-yl)-2-(4-methylpiperazin-1-yl)ethan-1-one] | 99.8 | -34.5 | 3840 |  |  |  |  |  |  |
| O=C(COCc1ccncc1)N1CCC(Cc2nn(-c3nc4ccccc4[nH]3)c(O)c2CCc2ccc(F)cc2)CC1 [Compound I-769, 1-(4-{[1-(1H-1,3-benzodiazol-2-yl)-4-[2-(4-fluorophenyl)ethyl]-5-hydroxy-1H-pyrazol-3-yl]methyl}piperidin-1-yl)-2-[(pyridin-4-yl)methoxy]ethan-1-one] |  |  |  | 9.47E + 00 minutes | 4.88 |  |  |  | % Cell Viability (TZM-bl cell line; 1.0 μM, uninfected TZM-bl, CellTiter-Blue, Table 4): 98.8%; Percent Viability @ 1 μM (TZM-bl cells) (TZM-bl cell line; Table 1, uninfected TZM-bl cells, 1 μM, Cell Titer Blue): 98.8%; % Infectivity Inhibition (HIV-1NL4-3; 1.0 μM, TZM-bl reporter cell line, Table 4): 26.5%; HIV-1 Infectivity % Inhibition Norm. to Δ-Nef @ 1 μM (HIV-1NL4-3; Table 1, TZM-bl cells, 1 μM, 48 h, 100% = Nef-defective HIV-1): 26.5%; Kd (HIV-1 NefNL4-3; Table 1, 1:1 Langmuir fit where the KD2 cell says '1 to 1 fitting', else 2-site fit, read-out: Nef NL4-3 Binding, SPR 1:1 or 2-site fitting KD1): 798 nM; Kd (HIV-1 NefNL4-3; Table 4, SPR fit 1:1 Langmuir, KD = koff/kon, read-out: KD): 798 nM |
| CC(C)(C)OC(=O)N1CCC(Cc2nn(-c3nc4ccccc4[nH]3)c(O)c2CCc2ccc(F)cc2)CC1 [Compound I-770] | 99.7 | 49.2 | 1.05 | 1.65E + 04 minutes | 3.04 | 99.7 | 49.2 | 1.05 |  |
| CS(=O)(=O)N1CCC(Cc2nn(-c3nc4ccccc4[nH]3)c(O)c2CCc2ccc(F)cc2)CC1 [Compound I-771, 1-(1H-1,3-benzodiazol-2-yl)-4-[2-(4-fluorophenyl)ethyl]-3-[(1-methanesulfonylpiperidin-4-yl)methyl]-1H-pyrazol-5-ol] | 100.1 | 13.1 | 965 |  |  |  |  |  |  |
| CC(=O)N1CCC(Cc2nn(-c3nc4ccccc4[nH]3)c(O)c2CCc2ccc(F)cc2)CC1 [Compound I-772, 1-(4-{[1-(1H-1,3-benzodiazol-2-yl)-4-[2-(4-fluorophenyl)ethyl]-5-hydroxy-1H-pyrazol-3-yl]methyl}piperidin-1-yl)ethan-1-one] | 100.1 | 49.6 | 858 |  |  |  |  |  |  |
| O=C(OCc1ccccc1)N1CCCC(Cc2nn(-c3nc4ccccc4[nH]3)c(O)c2CCc2ccc(F)cc2)C1 (stereo not shown) [Compound I-773, benzyl 3-{[1-(1H-1,3-benzodiazol-2-yl)-4-[2-(4-fluorophenyl)ethyl]-5-hydroxy-1H-pyrazol-3-yl]methyl}piperidine-1-carboxylate] | 101.8 | 25.5 | 55.9 |  |  |  |  |  |  |
| O=S(=O)(NCc1nn(-c2nc3ccccc3[nH]2)c(O)c1CCc1ccc(F)cc1)c1cccnc1 [Compound I-774, N-{[1-(1H-1,3-benzodiazol-2-yl)-4-[2-(4-fluorophenyl)ethyl]-5-hydroxy-1H-pyrazo1-3-y1]methyl}pyridine-3-sulfonamide] | 94.4 | -0.1 | 252 |  | 2.56 | 94.4 | 0 |  | Kd (HIV-1 NefNL4-3; [5]): 27.5 nM; Kd (HIV-1 NefNL4-3; [6]): 27.5 nM; T, minutes (residence time) (HIV-1 NefNL4-3; [7]): 1.09E + 02 minutes |
| CS(=O)(=O)N1CCC(CCc2c(-c3ccc(C(F)(F)F)cn3)nn(-c3nc4cc(Br)ccc4[nH]3)c2O)CC1 [Compound I-775, 1-(5-bromo-1H-1,3-benzodiazol-2-yl)-4-[2-(1-methanesulfonylpiperidin-4-yl)ethyl]-3-[5-(trifluoromethyl)pyridin-2-yl]-1H-pyrazol-5-ol] | 72.9 | 62.1 | 316 | 4.26E + 01 minutes | 1.62 | 72.9 | 62.1 | 316 |  |
| CC(C)(O)C(=O)N1CCC(CCc2c(-c3cccc(S(C)(=O)=O)c3)nn(-c3nc4ccccc4[nH]3)c2O)CC1 [Compound I-776, 1-(4-{2-[1-(1H-1,3-benzodiazol-2-yl)-5-hydroxy-3-(3-methanesulfonylphenyl)-1H-pyrazol-4-yl]ethyl}piperidin-1-yl)-2-hydroxy-2-methylpropan-1-one] | 97.1 | 19.3 | 393 |  | 5.14 | 97.1 | 19.3 |  | Kd (HIV-1 NefNL4-3; [5]): 1200 nM; Kd (HIV-1 NefNL4-3; [6]): 1200 nM; T, minutes (residence time) (HIV-1 NefNL4-3; [7]): 1.06E + 01 minutes |
| CC(C)(O)C(=O)N1CCC(Cc2nn(-c3nc4ccccc4[nH]3)c(O)c2CCc2ccc(F)cc2)CC1 [Compound I-777, 1-(4-{[1-(1H-1,3-benzodiazol-2-yl)-4-[2-(4-fluorophenyl)ethyl]-5-hydroxy-1H-pyrazol-3-yl]methyl}piperidin-1-yl)-2-hydroxy-2-methylpropan-1-one] | 97.0 | -3.6 | 997 | 3.50E + 00 minutes | 2.23 | 97.0 | 0 | 997 |  |
| CC(=O)N1CCCC(Cc2c(C3CC3)nn(-c3nc4ccccc4[nH]3)c2O)C1 (stereo not shown) [Compound I-780, 1-(3-{[1-(1H-1,3-benzodiazol-2-yl)-3-cyclopropyl-5-hydroxy-1H-pyrazol-4-yl]methyl}piperidin-1-yl)ethan-1-one] |  |  |  | 8.13E + 00 minutes | 4.47 | 99 | 0 | 4070 |  |
| CN(C)C(=O)N1CCCC(Cc2c(C3CC3)nn(-c3nc4ccccc4[nH]3)c2O)C1 (stereo not shown) [Compound I-782, 3-{[1-(1H-1,3-benzodiazol-2-yl)-3-cyclopropyl-5-hydroxy-1H-pyrazol-4-yl]methyl}-N,N-dimethylpiperidine-1-carboxamide] |  |  |  | 3.62E + 00 minutes | 5.13 | 98.8 | 61.1 | 9410 |  |
| C[C@@](O)(C(=O)N1CCC(CCc2c(C3CC3)nn(-c3nc4ccccc4[nH]3)c2O)CC1)C(F)(F)F [Compound I-783, (2R)-1-(4-{2-[1-(1H-1,3-benzodiazol-2-yl)-3-cyclopropyl-5-hydroxy-1H-pyrazol-4-yl]ethyl}piperidin-1-yl)-3,3,3-trifluoro-2-hydroxy-2-methylpropan-1-one] |  |  |  | 4.08E + 00 minutes | 1.38 | 100 | 5.4 | 3370 |  |
| Oc1c(CCc2ccc(F)cc2)c(C2CCN(Cc3ccccn3)CC2)nn1-c1nc2ccccc2[nH]1 [Compound I-802, 1-(1H-1,3-benzodiazol-2-yl)-4-[2-(4-fluorophenyl)ethyl]-3-{1-[(pyridin-2-yl)methyl]piperidin-4-yl}-1H-pyrazol-5-ol] | 99.3 | 4.4 | 447 |  | 2.48 | 99.3 | 4.4 |  | Kd (HIV-1 NefNL4-3; [5]): 182 nM; Kd (HIV-1 NefNL4-3; [6]): 182 nM; T, minutes (residence time) (HIV-1 NefNL4-3; [7]): 2.21E + 01 minutes |
| Oc1c(CCc2ccc(F)cc2)c(C2CCN(Cc3cccnc3)CC2)nn1-c1nc2ccccc2[nH]1 [Compound I-803, 1-(1H-1,3-benzodiazol-2-yl)-4-[2-(4-fluorophenyl)ethyl]-3-{1-[(pyridin-3-yl)methyl]piperidin-4-yl}-1H-pyrazol-5-ol] | 100.4 | 3.2 | 817 | 1.59E + 01 minutes | 1.69 | 100 | 3.2 | 817 |  |
| Oc1c(CCc2ccc(F)cc2)c(C2CCN(Cc3ccncc3)CC2)nn1-c1nc2ccccc2[nH]1 [Compound I-804, 1-(1H-1,3-benzodiazol-2-yl)-4-[2-(4-fluorophenyl)ethyl]-3-{1-[(pyridin-4-yl)methyl]piperidin-4-yl}-1H-pyrazol-5-ol] | 97.5 | 50 | 90.8 |  |  |  |  |  |  |
